The values below come from patent US20250000783A1, “METHOD FOR HAIR CARE BY USING CASHEW TESTA EXTRACT” (TCI CO., LTD., priority 2023, published 2025).

Test [1] concerns human hair follicle dermal papilla cells (HFDPC). The test is described as follows: Antioxidant test for hair follicle cells (ROS, DCFH-DA, flow cytometry, H2O2 stimulation). Type of test: cell-based. The note with it: 0.1 mM compound + 0.5 mM H2O2, read-out: ROS inhibition rate relative to control group G02. As to the method:
1. Cell strains: human hair follicle dermal papilla cells (HFDPC), which are purchased from PromoCell, with a cell number C-12071, and hereinafter referred to as HFDPC cells.
1. HFDPC cells were inoculated into a 6-well culture medium with 2 ml of cell culture medium in each well at the density of 1×10^5 cells, and cultured at 37° C. for 24 h. Therefore, the HFDPC cells were divided into three test groups which were blank group G01, control group G02 and experimental group, respectively.
2. After culture for 24 h, each group was changed as an experimental culture medium. Where, the experimental culture media in blank G01 and control group G02 were cell culture mediums without cashew testa extracts or compounds thereof. Subsequently, each group was treated at 34° C. for 1 h.
3. After treatment for 1 h, a DCFH-DA treatment reagent was added in each group so that the final concentration of each group was 5 μg/mL, and each group was treated at 37° C. for 15 min.
4. After treatment for 15 min, 100 mM of 5 μl/well H2O2 aqueous solution was added, and each group was treated at 34° C. for 0.5 h.
5. The treated experimental culture medium in each group was removed, and washed 2 times with 1× DPBS.
6. After washing, 500 μl of trypsin was added into each well for 5 min of photophobic reaction. After the reaction, the cell culture medium was added to terminate the reaction. After that, suspended cells and cell culture media in each well were collected into corresponding 1.5 ml micro-centrifuge tubes, and centrifuged for 5 min at 400×g to make cells in each centrifuge tube participated.
7. Supernatant in a centrifuge test tube for each group was removed, and the precipitate cells were washed with 1× DPBS once, and then centrifuged for 5 min at 400×g.
The supernatant in a centrifuge test tube for each group was removed again, and 200 μl of 1× DPBS was added into the centrifuge test tube for each group to resuspend the cells so as to form a cell suspension.
8. The excitation light parameter of flow cytometry was set as 450-490 nm, the scattered light parameter of flow cytometry was set as 510-550, and then the fluorescence signal of DCFH-DA in each group was detected by flow cytometry. After entering the HFDPC cells, DCFH-DA was […] into DCFH (dichlorodihydrofluorescein) and then oxidized into DCF (dichlorofluorescein) capable of emitting green fluorescence by reactive oxygen species (ROS), the fluorescence intensity of the HFDPC cells treated by DCFH-DA can reflect the content of ROS in […], so as to obtain the proportion of highly expressed ROS cells in FDPC cells accounting for the number of original cells.
The relative ROS generation amounts of all groups are calculated according to the following formula: ROS relative generation amount (%)=(green fluorescence signal in each group/green fluorescence signal in blank group G01)×100%.
Since the experiment was repeated for three times, the measurement results of experiment that was repeated for three times were averaged as an average value, and then statistically significant differences between rest results of control group G02 and other groups were obtained by student's t-test statistical analysis. In the figures, “*” represents that compared with control group G02, p is less than 0.05, “**” represents that compared with control group G02, p is less than 0.01, and “***” represents that compared with control group G02, p is less than 0.001.
Refer to FIG. 10. The cells in blank group G01 were neither treated with the cashew testa extract, nor stimulated by adding H2O2, and therefore the test results in blank group G01 represent the expression of cells under the condition of normal physiological metabolism, and the relative ROS generation amount of each group is as shown in FIG. 10. […]
(In flow cytometry, cells or beads pass a laser one at a time.)

In another test the test system is HFDPC cells. The test is described as follows: Test for promoting hair follicle cell proliferation (EdU, flow cytometry). To be noted: 0.1 mM compound, 24 h; for relative hair follicle cell proliferation rate: blank group G01 = 100%. It counts as cell-based, human. As to the method: 1. Assay kit: cell proliferation assay kit (Click-iT™ Plus EdU Flow Cytometry Assay Kits-Alexa Fluor™ 488 picolyl azide, 50 tests), which is purchased from Invitrogen, with a product number C10632.
1. HFDPC cells were inoculated into a 6-well culture medium at the density of 1×10^5 cells/well, and cultured under the conditions of 5% CO2 and 37° C. until 80%-90% of cell fullness were achieved.
2. After culture for 24 h, the content of DNA in each group was measured by using cell proliferation assay kit. Therefore, cells in each group were treated according to test procedures provided by the cell proliferation assay kit, then the excitation light parameter of flow cytometer was set as 450-490 nm, and the scattered light parameter of flow cytometer was set as 510-550 nm, and then EdU (5-ethynyl-2′-deoxyuridine) fluorescent signal of each group was detected by flow cytometer.
The proliferation rate of hair follicle cells in each group was based on the content of DNA in each group. The relative hair follicle cell proliferation rates of all groups are calculated according to the following formula: relative hair follicle cell proliferation rate (%)-(fluorescent signal of each group/fluorescent signal of blank group G01)×100%.
The statistically significant difference between test results of blank group G01 and other groups was obtained by student's t-test statistical analysis. In the figures, “*” represents that compared with blank group G01, p is less than 0.05, “**” represents that compared with blank group G01, p is less than 0.01, and “***” represents that compared with blank group G01, p is less than 0.001.

One may read the inhibition as the drop in the measured response relative to a control, in per cent.

`O=C(/C=C/c1ccc(O)cc1)OC[C@H]1O[C@@H](Oc2cc(O)c3c(c2)OC(c2ccc(O)cc2)CC3=O)[C@H](O)[C@@H](O)[C@@H]1O` (stereo partly drawn) [Naringenin 7-O-(6″-O-p-coumaryl)-β-D-glucoside]: in test [1], the inhibition at 100 µM stood at 75.8%. In the test with HFDPC cells, the “increase of relative hair follicle cell proliferation rate relative to blank group G01” value is ~25%, the “proliferation effect compared with control group G02 (20% fetal bovine serum)” value is “superior to that of control group G02” and the “relative hair follicle cell proliferation rate” value stood at 125%.
In the case of `O=C(/C=C/c1ccc(O)cc1)O[C@@H]1Cc2c(O)cc(O)cc2O[C@@H]1c1ccc(O)c(O)c1` [epicatechin coumarin ester, Epicatechin coumarin ester], the inhibition at 100 µM in test [1] is 100%. For the same compound, in the test on HFDPC cells, the “increase of relative hair follicle cell proliferation rate relative to blank group G01” value is listed as “about 14.1%” and the “relative hair follicle cell proliferation rate” value is listed as 114.1%.
`O=C(O[C@@H]1Cc2c(O)cc(O)cc2O[C@@H]1c1ccc(O)c(O)c1)c1cc(O)c(O)c(O)c1` [epicatechin gallate, Epicatechin gallate]: in test [1], the inhibition at 100 µM stood at 96.9%. Besides, the “relative hair follicle cell proliferation rate” value with HFDPC cells worked out at 89.9%.
On to `O=C(O)c1cc(O)c(O)c(O)c1` [gallic acid, Gallic acid], for which the inhibition at 100 µM in test [1] is 80%. Besides, the “relative hair follicle cell proliferation rate” value in the test with HFDPC cells worked out at 83.7%.
As for `Oc1cc(O)c2c(c1)O[C@H](c1cc(O)c(O)c(O)c1)[C@@H](O)C2` [gallocatechin, Gallocatechin], the inhibition at 100 µM in test [1] was 90.8%. Besides, the “relative hair follicle cell proliferation rate” value in the test with HFDPC cells is 93.5%.
For `Oc1cc(O)cc(O)c1` [phloroglucinol, Phloroglucinol], in test [1], the inhibition at 100 µM came out at 53.9%. Further, in the test on HFDPC cells, the “increase of relative hair follicle cell proliferation rate relative to blank group G01” value is given as ~27.9%, the “proliferation effect compared with control group G02 (20% fetal bovine serum)” value is reported as “superior to that of control group G02” and the “relative hair follicle cell proliferation rate” value was determined as 127.9%.
Regarding `O=C(O)c1ccc(O)c(O)c1` [protocatechuic acid, Protocatechuic acid], the inhibition at 100 µM in test [1] is 99.4%. Further, in the test on HFDPC cells, the “increase of relative hair follicle cell proliferation rate relative to blank group G01” value is listed as ~9.6% and the “relative hair follicle cell proliferation rate” value was 109.6%.
